Laboratory results published in patent publication EP0703239A1, “Aminomethylphosphonic and aminomethylphosphinic acids derivatives and their use in the treatment of degenerative articular diseases” (priority 1994, dated 1996).

What was measured:
Rattenlebermikrosomen = assay: Inhibition of microsomal lipid peroxidation (malondialdehyde/thiobarbituric acid); assay type: biochemical, Ratte; conditions: rat liver microsomes, FeSO₄ start, 10 min 37°C; read-out: IC50 Mikrosomale Lipidperoxidation
Procedure: 4. Hemmung der Mikrosomalen Lipidperoxidation […]
Alle Schritte werden bei 0°C durchgeführt. Die Leber einer Ratte wird, um alles Hämoglobin zu entfernen, mit 0,9 % NaCl-Lösung gründlich gespült. Die grob zerkleinerte Leber wird dann in 10 mM Tris/HCl pH 7,4; 250 mM Saccharose (10 ml Puffer/g Leber) gepottert. Zunächst wird 5 Minuten bei 600xg zentrifugiert. Der Überstand wird dann 10 min bei 12000xg zentrifugiert und wird mit festem CaCl₂ (117,6 mg/100 ml) auf eine Konzentration von 8 mM eingestellt. Durch Zentrifugieren bei 25000 xg (15 min) wird ein Mikrosomenniederschlag gewonnen. Dieser Niederschlag wird im gleichen Volumen Puffer (10 mM Tris/HCl pH 7,4; 150 mM KCl) rehomogenisiert und erneut 15 min bei 25000 xg zentrifugiert.
Ein Testansatz besteht aus 20 µl Mikrosomen (100 mg/ml), vgl. oben, gelöst in Puffer (250 mM Tris/HCl pH 6,6, 750 mM KCl), 10 µl 50 mM MgCl₂, 10 µl 200 mM Isocitronensäure, 10 µl 4mM NADP (3,028 mg/ml Wasser), 10 µl 25 mM Niacinamid, 10 µl Isocitratdehydrogenase (1:100 verdünnt) und 20 µl Wasser oder Testsubstanz. Gestartet wird die Reaktion mit 10 µl 0,25 mM FeSO₄. Die Inkubation dauert 10 Minuten und erfolgt bei 37°C. Gestoppt wird mit 500 µl eiskalter 20 %iger Trichloressigsäure. Entstandenes Malondialdehyd wird durch Zugabe von 500 µl 0,67 %iger Thiobarbitursäure und 30 Minuten Inkubation bei 90°C in eine pinkfarbene Verbindung überführt, die bei 532 nm gemessen wird. Die Extinktion im Kontrollansatz ohne Prüfpräparat wird auf 0 % Hemmung gesetzt, während das völlige Verschwinden des Signals 100 % Hemmung bedeutet.

Chondrozyten = assay: IL-1-induced chondrocytic chondrolysis in chondrocyte agarose culture, 35S-sulfate incorporation; conditions: agarose cell culture with 5 u/ml human rec. IL-1 alpha; factor relative to IL-1 treated control

Compound	IC50 (Rattenlebermikrosomen) [nM]	Stimulationsfaktor der Proteoglykansynthese (Chondrozyten)
CC(C)(C)c1cc(C(Nc2ccc(Cl)cc2)P(=O)(O)O)cc(C(C)(C)C)c1O (stereo not shown) [Beispiel 4]	710	–
CCCOP(=O)(OCCC)C(NC1CCCCC1)c1cc(C(C)(C)C)c(O)c(C(C)(C)C)c1 (stereo not shown) [Beispiel 9]	2100	–
CCCCOP(=O)(OCCCC)C(NC1CCCCC1)c1cc(C(C)(C)C)c(O)c(C(C)(C)C)c1 (stereo not shown) [Beispiel 10]	9000	1,5
CCOP(=O)(OCC)C(NC1CCCCCC1)c1cc(C(C)(C)C)c(O)c(C(C)(C)C)c1 (stereo not shown) [Beispiel 11]	970	–
CCN(CC)CCNC(c1cc(C(C)(C)C)c(O)c(C(C)(C)C)c1)[PH](=O)O (stereo not shown) [Beispiel 14]	–	1,2
CCOP(=O)(OCC)C(NC1CC(C)(C)NC(C)(C)C1)c1cc(C(C)(C)C)c(O)c(C(C)(C)C)c1 (stereo not shown) [Beispiel 17]	3180	–
CCOP(=O)(OCC)C(NC1CCN(Cc2ccccc2)CC1)c1cc(C(C)(C)C)c(O)c(C(C)(C)C)c1 (stereo not shown) [Beispiel 18]	2030	–
CCOP(=O)(OCC)C(NC(C)C(=O)OC)c1cc(C(C)(C)C)c(O)c(C(C)(C)C)c1 (stereo not shown) [Beispiel 19]	–	4,3
CCOP(=O)(OCC)C(NC(CC(C)C)C(=O)OC)c1cc(C(C)(C)C)c(O)c(C(C)(C)C)c1 (stereo not shown) [Beispiel 20]	2100	–
CCCN(CCC)C(c1cc(C(C)(C)C)c(O)c(C(C)(C)C)c1)P(=O)(OCC)OCC (stereo not shown) [Beispiel 21]	6350	–
CC(C)(C)c1cc(C(NCc2ccccc2)[PH](=O)O)cc(C(C)(C)C)c1O (stereo not shown) [Beispiel 27]	–	1,2
CC(C)(C)c1cc(C(NCc2ccc3c(c2)OCO3)[PH](=O)O)cc(C(C)(C)C)c1O (stereo not shown) [Beispiel 28]	–	5,5
COP(=O)(OC)C(NCc1ccc2c(c1)OCO2)c1cc(C(C)(C)C)c(O)c(C(C)(C)C)c1 (stereo not shown) [Beispiel 29]	690	1,5
CCOP(=O)(OCC)C(NCc1ccc(OC)cc1)c1cc(C(C)(C)C)c(O)c(C(C)(C)C)c1 (stereo not shown) [Beispiel 32]	–	1,4
CCOP(=O)(OCC)C(NCc1ccc(Cl)cc1)c1cc(C(C)(C)C)c(O)c(C(C)(C)C)c1 (stereo not shown) [Beispiel 33]	–	2,2
CCOP(=O)(OCC)C(NCc1ccc(C#N)cc1)c1cc(C(C)(C)C)c(O)c(C(C)(C)C)c1 (stereo not shown) [Beispiel 35]	–	3,9
CCOP(=O)(OCC)C(Nc1ccccc1)c1cc(C(C)(C)C)c(O)c(C(C)(C)C)c1 (stereo not shown) [Beispiel 37]	–	1,5
CCOP(=O)(OCC)C(Nc1ccccc1Cl)c1cc(C(C)(C)C)c(O)c(C(C)(C)C)c1 (stereo not shown) [Beispiel 39]	2400	–
CC(C)(C)c1cc(C(Nc2ccc(Cl)cc2)[PH](=O)O)cc(C(C)(C)C)c1O (stereo not shown) [Beispiel 40]	490	2,1
CC(C)(C)c1cc(C(Nc2ccc(Cl)cc2)P(C)(=O)O)cc(C(C)(C)C)c1O (stereo not shown) [Beispiel 41]	–	3,5
COP(=O)(OC)C(Nc1ccc(Cl)cc1)c1cc(C(C)(C)C)c(O)c(C(C)(C)C)c1 (stereo not shown) [Beispiel 43]	790	1,4
C=CCOP(=O)(OCC=C)C(Nc1ccc(Cl)cc1)c1cc(C(C)(C)C)c(O)c(C(C)(C)C)c1 (stereo not shown) [Beispiel 46]	860	–
CC(C)(C)c1cc(C(Nc2ccc(Cl)cc2)P(=O)(Oc2ccccc2)Oc2ccccc2)cc(C(C)(C)C)c1O (stereo not shown) [Beispiel 47]	–	1,8
CCOP(=O)(OCC)C(Nc1ccc(C(=O)OC)cc1)c1cc(C(C)(C)C)c(O)c(C(C)(C)C)c1 (stereo not shown) [Beispiel 66]	750	–
CCOP(=O)(OCC)C(Nc1ccc(NC(=N)N)cc1)c1cc(C(C)(C)C)c(O)c(C(C)(C)C)c1 (stereo not shown) [Beispiel 73]	670	–
CCOP(=O)(OCC)C(Nc1ccc2c(c1)CCCC2)c1cc(C(C)(C)C)c(O)c(C(C)(C)C)c1 (stereo not shown) [Beispiel 75]	2900	–
CCOP(=O)(OCC)C(Nc1ccc2ccccc2c1)c1cc(C(C)(C)C)c(O)c(C(C)(C)C)c1 (stereo not shown) [Beispiel 76]	2050	–
